We go through one compound from publication PMC6367351 (Nature Communications, 2019).

Residue numbers refer to the chain shown, from its start.

In experiment [1] the target is T1, MinElp3 (Methanocaldococcus infernus, UniProt D5VRB9, DEL466-486/INS466GSGSG).
T1 construct: gene Metin_0452
In words: ITC (also tRNA-induced acetyl-CoA hydrolysis). The format is binding.

The target of a further experiment is T2, DmcElp3 (Dehalococcoides mccartyi, UniProt A0A1C7D1B7).
T2 construct: gene cbdbA595
Briefly: acetyl-CoA hydrolysis by purified protein, induced by yeast bulk tRNA (weak). The format is biochemical.

Experiment [2] addresses T3, MinElp3 (Methanocaldococcus infernus, UniProt D5VRB9).
T3 construct: gene Metin_0452; full length
T3 sequence (D5VRB9 1-534): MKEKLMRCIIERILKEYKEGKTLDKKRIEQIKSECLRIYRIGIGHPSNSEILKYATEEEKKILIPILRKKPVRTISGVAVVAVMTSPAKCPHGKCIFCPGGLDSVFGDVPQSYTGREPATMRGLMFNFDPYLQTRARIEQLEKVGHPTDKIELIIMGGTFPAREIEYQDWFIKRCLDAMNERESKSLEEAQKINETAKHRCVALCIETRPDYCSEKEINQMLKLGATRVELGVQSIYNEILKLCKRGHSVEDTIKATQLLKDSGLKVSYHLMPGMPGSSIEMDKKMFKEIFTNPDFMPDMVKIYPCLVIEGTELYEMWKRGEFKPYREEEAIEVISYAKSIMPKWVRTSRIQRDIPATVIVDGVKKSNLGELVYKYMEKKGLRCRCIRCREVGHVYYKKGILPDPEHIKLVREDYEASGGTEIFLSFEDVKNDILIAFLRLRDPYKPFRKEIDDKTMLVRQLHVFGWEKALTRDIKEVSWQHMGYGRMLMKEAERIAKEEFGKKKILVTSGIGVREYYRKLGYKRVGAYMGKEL
In words: ITC (also tRNA-induced acetyl-CoA hydrolysis). The format is binding.

The target of experiment [3] is T4, MinElp3 (Methanocaldococcus infernus, UniProt D5VRB9, K150A).
T4 construct: gene Metin_0452
T4 sequence (D5VRB9 1-534 K150A): T3 sequence (D5VRB9 1-534) with K150A
In words: acetyl-CoA binding measurement (Supplementary Fig. 6b).

T1 sequence (D5VRB9 other isoform, or with tags, fused parts or gaps DEL466-486/INS466GSGSG): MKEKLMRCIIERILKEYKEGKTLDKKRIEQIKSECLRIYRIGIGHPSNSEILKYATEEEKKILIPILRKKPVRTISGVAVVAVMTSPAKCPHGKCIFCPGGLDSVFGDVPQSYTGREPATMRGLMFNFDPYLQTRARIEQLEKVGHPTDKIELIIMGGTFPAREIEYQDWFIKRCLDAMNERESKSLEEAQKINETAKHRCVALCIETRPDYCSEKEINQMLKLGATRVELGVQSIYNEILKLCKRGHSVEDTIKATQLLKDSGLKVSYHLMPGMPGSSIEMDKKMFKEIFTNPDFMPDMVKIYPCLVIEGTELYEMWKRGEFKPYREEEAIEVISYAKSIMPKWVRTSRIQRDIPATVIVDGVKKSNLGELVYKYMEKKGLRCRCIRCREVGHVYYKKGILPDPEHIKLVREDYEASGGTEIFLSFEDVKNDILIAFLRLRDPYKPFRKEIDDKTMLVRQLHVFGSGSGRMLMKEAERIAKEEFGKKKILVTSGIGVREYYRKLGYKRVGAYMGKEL
T2 sequence (A0A1C7D1B7 whole entry): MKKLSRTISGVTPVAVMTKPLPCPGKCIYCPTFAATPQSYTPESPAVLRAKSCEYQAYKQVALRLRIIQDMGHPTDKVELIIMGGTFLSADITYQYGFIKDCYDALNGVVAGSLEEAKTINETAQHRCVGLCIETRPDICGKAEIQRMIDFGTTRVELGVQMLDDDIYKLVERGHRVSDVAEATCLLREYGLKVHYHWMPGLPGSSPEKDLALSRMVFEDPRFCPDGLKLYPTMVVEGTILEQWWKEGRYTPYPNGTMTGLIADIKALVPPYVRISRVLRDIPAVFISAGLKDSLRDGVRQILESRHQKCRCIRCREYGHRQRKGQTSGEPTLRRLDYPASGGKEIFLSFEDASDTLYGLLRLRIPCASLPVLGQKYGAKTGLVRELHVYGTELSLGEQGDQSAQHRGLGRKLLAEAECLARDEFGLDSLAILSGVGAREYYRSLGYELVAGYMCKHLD

Consider `CC(=O)SCCNC(=O)CCNC(=O)[C@H](O)C(C)(C)COP(=O)(O)OP(=O)(O)OC[C@H]1O[C@@H](n2cnc3c(N)ncnc32)[C@H](O)[C@@H]1OP(=O)(O)O` [acetyl-CoA], for which the Kd – broadly, the free concentration of one partner at which half of the binding sites on the other are occupied at equilibrium, for simple one-to-one binding – at MinElp3 [1] was found to be 108 ± 55.8 µM; on MinElp3 [2], 135 ± 55.3 µM. Besides, on DmcElp3, the “acetyl-CoA hydrolysis by purified protein, induced by yeast bulk tRNA (weak)” value is listed as “DmcElp3, on the other hand, showed ~5-times reduced-induced hydrolysis activity”. Besides, on MinElp3 [3], the “acetyl-CoA binding measurement (Supplementary Fig. 6b)” value is “As K150A shows normal tRNA and acetyl-CoA binding, we believe that it might be directly involved the hydrolysis reaction”.
